Results: US20240011030A1, “TREATMENTS FOR RETINAL DEGENERATIVE DISEASES” (Novartis AG, priority 2020, published 2024)

Columns and labels:
Format in all cases: cell-based, human
DDX58/RIG-I [1] = assay: anti-RIG-I/DDX58 western blot verifying knockout; details: ARPE-19-Cas9 cells transduced with gRNA, FIG. 10D
Protocol: (§1) ARPE-19 cells stably expressing the Cas9 gene (ARPE19-Cas9) were generated by lentiviral transduction of ARPE-19 cells. Virus was harvested from supernatants of HEK-293T cells (ATCC) cotransfected with the in-house lentiviral vector pNGx_LV_c010 (39) and Lentiviral Packaging Plasmid Mix (Cellecta, Mountain View, CA; #CPCP-K2A) using TransIT-293 Transfection Reagent (MirusBio, Madison, WI). ARPE19-Cas9 cells were selected with 125 μg/mL HygromycinB (Invitrogen, Carlsbad, CA) and Cas9 expression was verified by western blot using Anti-FLAG primary antibody (Sigma-Aldrich #F1804). ARPE-19 RIG-I KO cells were generated by sgRNA expression in ARPE-19-Cas9 cells by lentiviral infection using the in-house lentiviral vector pNGx_LV_g003 (39). The sgRNA sequence targeting DDX58/RIG-I is 5′-[…]-3′ (SEQ ID NO: 1). Control sgRNA sequences were:
Knockout was verified by western blot (FIG. 10D).
For western blot, samples (30 μg of protein) were dissolved in sample buffer (Invitrogen) and boiled for 5 min at 100° C. The sample was then separated by Criterion™ TGX™ precast gel electrophoresis and electrotransferred onto nitrocellulose membranes (Bio-Rad, Hercules, CA). […] The immuno-reactive proteins were detected using SuperSignal™ West Femto Maximum sensitivity substrate (ThermoFisher Scientific) and imaged on FluorChem M (ProteinSimple, San Jose, CA).

DDX58/RIG-I [2] = assay: CRISPR/Cas9 KO, IL-6 secretion by ELISA after nucleic acid stimulation; details: ARPE-19-RIG-I KO, 0.25 μg/ml nucleic acid for 24 hours, FIG. 4B
Protocol: In addition to the type I IFN response, nucleic acid sensing can also activate NFκB-dependent cytokine release. IL-6 secretion was measured in ARPE19-Cas9, Control gRNA, and RIG-I gRNA cell line cultures 24 hours after nucleic acid stimulation to evaluate nucleic acid-induced NFκB activation in RPE cells. All cells were stimulated with 0.25 μg/ml nucleic acid for 24 hours, after which IL-6 secretion was measured by ELISA.
as §1, with “1).” for “1). Control sgRNA sequences were:”

DDX58/RIG-I [3] = assay: CRISPR/Cas9 KO, IFNβ secretion by ELISA after nucleic acid stimulation; details: ARPE19-Cas9 cells, 0.25 μg/ml nucleic acid for 24 hours, FIG. 4A
Protocol: Further validation of the importance of RIG-I as an intracellular nucleic acid sensor was performed using CRISPR/Cas9 KO experiments in ARPE-19 cells. An ARPE-19 cell line stably expressing Cas9 (ARPE19-Cas9) was generated, along with control gRNA and RIG-I gRNA-transduced cell lines. ARPE-19 control gRNA and ARPE-19 RIG-I gRNA cells were generated by sgRNA expression in ARPE-19-Cas9 cells by lentiviral infection. The sgRNA sequence targeting DDX58/RIG-I was 5′-[…]-3′ (SEQ ID NO:1). Control sgRNA sequences used were: 5′-[…]-3′ (SEQ ID NO:8), 5′-[…]-3′ (SEQ ID NO:9), 5′-[…]-3′ (SEQ ID NO:10), and 5′-[…]-3′ (SEQ ID NO: 11). […] All cells were stimulated with 0.25 μg/ml nucleic acid for 24 hours, after which IFNβ secretion was measured by ELISA.
ARPE-19 cells stably expressing the Cas9 gene (ARPE19-Cas9) were generated by lentiviral transduction of ARPE-19 cells. […]
For ELISA, assays were run using Meso Scale Discovery plates (Meso Scale Diagnostics, Rockville, MD). […] Lysates or conditioned media were measured in 384-well plates using antibody pairs for ISG15 (R&D #AF4845, #A-830), IFNβ (R&D #DY814), IFNα1 (abcam #ab215408), IFNγ (R&D #DY285B), IFNλ1/3 (R&D #DY1598B), and cGAS (Cayman #23853, CST #66546). Protein levels were measured according to manufacturer instructions, and detected on a Meso Sector S 600 imager.

RPE cells = assay: ISG15 induction by IFN stimulation (ELISA); details: THP1, ARPE-19 or iPS-RPE cells, IFNs up to 100 μg/ml, 24 hours, FIGS. 2D to 2F
Protocol: To test whether IFNs can induce an IFN response and, if so, which IFNs can induce an IFN response, cells were treated with different IFNs (IFNα1, IFNβ, IFNγ, or IFNλ1/2/3), and ISG15 induction was measured. Cells were treated with different IFN types at 100 ng/ml each (FIG. 2D) or 0 ng/ml IFN, 0.1 ng/ml IFN, 1 ng/ml IFN, 10 ng/ml IFN, or 100 ng/ml IFN (FIGS. 2E and 2F). ISG15 expression in was detected by ELISA 24 hours after treatment as described above, using antibody pairs for ISG15 (R&D #AF4845, #A-830).
For ELISA, assays were run using Meso Scale Discovery plates (Meso Scale Diagnostics, Rockville, MD). Lysates were extracted using cell lysis buffer (CST #9803), and supplemented with protease and phosphatase inhibitors. Lysates or conditioned media were measured in 384-well plates using antibody pairs for ISG15 (R&D #AF4845, #A-830), IFNβ (R&D #DY814), IFNα1 (abcam #ab215408), IFNγ (R&D #DY285B), IFNλ1/3 (R&D #DY1598B), and cGAS (Cayman #23853, CST #66546). Protein levels were measured according to manufacturer instructions, and detected on a Meso Sector S 600 imager.

Molecule	DDX58 protein by western blot (DDX58/RIG-I [1])	poly(I:C)-induced IL-6 release (DDX58/RIG-I [2])	IFNβ secretion response to all nucleic acid species tested (DDX58/RIG-I [3])	ISG15 induction in response to IFN stimulation (RPE cells)
5′-ACTCACCCTCCCTAAACCAG-3′ (expressed or natural sequence) [RIG-I gRNA]	lack of detectable DDX58 protein	only partially reduced	completely abrogated	–
IFNα: type I interferon purchased from R&D Systems (protein, UniProt P01562 24-189, looked up) Interferon alpha-1/13: CDLPETHSLDNRRTLMLLAQMSRISPSSCLMDRHDFGFPQEEFDGNQFQKAPAISVLHELIQQIFNLFTTKDSSAAWDEDLLDKFCTELYQQLNDLEACVMQEERVGETPLMNADSILAVKKYFRRITLYLTEKKYSPCAWEVVRAEIMRSLSLSTNLQERLRRKE	–	–	–	primarily responded
